Consider 13 molecules from patent US20240109917A1 (ACTELION PHARMACEUTICALS LTD, priority 2020, published 2024).

Where only a bound is given, the exact number is not on record here.

This experiment addresses VEGFR2, unphosphorylated (Homo sapiens (Human), UniProt P35968). In words: VEGFR ADP GLO Assay. The format is biochemical. For orientation: In ADP-Glo the light output rises with the ADP produced.

VEGFR2, unphosphorylated, sequence (P35968 20-1356): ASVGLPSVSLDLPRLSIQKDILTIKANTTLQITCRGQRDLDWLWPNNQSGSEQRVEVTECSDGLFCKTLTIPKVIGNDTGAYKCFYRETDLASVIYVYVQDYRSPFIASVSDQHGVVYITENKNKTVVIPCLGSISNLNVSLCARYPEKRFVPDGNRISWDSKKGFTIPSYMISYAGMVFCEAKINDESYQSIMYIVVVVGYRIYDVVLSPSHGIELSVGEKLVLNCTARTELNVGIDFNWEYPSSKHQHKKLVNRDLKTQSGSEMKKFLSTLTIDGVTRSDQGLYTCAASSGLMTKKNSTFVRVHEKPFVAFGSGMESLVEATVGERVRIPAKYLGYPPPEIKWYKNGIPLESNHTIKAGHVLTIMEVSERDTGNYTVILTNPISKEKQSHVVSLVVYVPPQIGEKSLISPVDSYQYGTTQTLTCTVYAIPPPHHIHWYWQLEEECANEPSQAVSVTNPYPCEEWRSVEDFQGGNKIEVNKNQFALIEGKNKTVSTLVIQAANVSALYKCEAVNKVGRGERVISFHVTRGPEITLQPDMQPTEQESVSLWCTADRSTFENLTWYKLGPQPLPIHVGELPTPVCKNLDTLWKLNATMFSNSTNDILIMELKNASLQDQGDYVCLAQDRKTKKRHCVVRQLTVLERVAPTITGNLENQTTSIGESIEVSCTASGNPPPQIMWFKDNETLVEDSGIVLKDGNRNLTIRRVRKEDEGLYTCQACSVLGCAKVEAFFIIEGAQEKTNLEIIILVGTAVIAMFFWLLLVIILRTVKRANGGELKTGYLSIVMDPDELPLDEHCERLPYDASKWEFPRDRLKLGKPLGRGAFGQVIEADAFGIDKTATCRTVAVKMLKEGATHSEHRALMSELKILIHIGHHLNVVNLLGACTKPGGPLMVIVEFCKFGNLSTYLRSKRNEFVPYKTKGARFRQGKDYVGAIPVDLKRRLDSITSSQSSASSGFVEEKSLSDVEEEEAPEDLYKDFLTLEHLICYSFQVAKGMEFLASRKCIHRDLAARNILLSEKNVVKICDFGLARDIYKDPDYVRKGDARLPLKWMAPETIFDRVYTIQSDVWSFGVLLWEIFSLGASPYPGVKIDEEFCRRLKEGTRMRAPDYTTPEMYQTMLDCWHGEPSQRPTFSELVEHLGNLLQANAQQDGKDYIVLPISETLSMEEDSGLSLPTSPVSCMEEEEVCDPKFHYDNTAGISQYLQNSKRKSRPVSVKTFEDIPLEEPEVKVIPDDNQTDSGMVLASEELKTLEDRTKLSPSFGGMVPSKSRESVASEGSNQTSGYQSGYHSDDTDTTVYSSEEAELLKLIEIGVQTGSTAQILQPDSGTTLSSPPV

As usually defined, the IC50 is the concentration at which inhibition is half-maximal. Read a low IC50 as higher potency. `COCCn1cc(-c2cn3ncc(C(=O)Nc4cc(C(=O)NCCN5CCC(F)(F)C5)cnc4C)c3s2)cn1` [Example 167, N-(5-((2-(3,3-difluoropyrrolidin-1-yl)ethyl)carbamoyl)-2-methylpyridin-3-yl)-2-(1-(2-methoxyethyl)-1H-pyrazol-4-yl)pyrazolo[5,1-b]thiazole-7-carboxamide]: the IC50 is more than 7.5 µM. With `COCCn1cc(-c2cn3ncc(C(=O)Nc4cc(C(=O)NCCN5CC6(CCC6)C5)cnc4C)c3s2)cn1` [Example 168, N-(5-((2-(2-azaspiro[3.3]heptan-2-yl)ethyl)carbamoyl)-2-methylpyridin-3-yl)-2-(1-(2-methoxyethyl)-1H-pyrazol-4-yl)pyrazolo[5,1-b]thiazole-7-carboxamide], the IC50 is more than 7.5 µM. In turn, `Cc1ncc(C(=O)NCCN2CCC23CCC3)cc1NC(=O)c1cnn2cc(-c3cnn(C)c3C)sc12` [Example 169, N-(5-((2-(1-azaspiro[3.3]heptan-1-yl)ethyl)carbamoyl)-2-methylpyridin-3-yl)-2-(1,5-dimethyl-1H-pyrazol-4-yl)pyrazolo[5,1-b]thiazole-7-carboxamide] displayed an IC50 of more than 7.5 µM. Regarding `Cc1ncc(C(=O)NCCN2CCC3(CC3)C2)cc1NC(=O)c1cnn2cc(-c3cnn(C)c3C)sc12` [Example 170, N-(5-((2-(5-azaspiro[2.4]heptan-5-yl)ethyl)carbamoyl)-2-methylpyridin-3-yl)-2-(1,5-dimethyl-1H-pyrazol-4-yl)pyrazolo[5,1-b]thiazole-7-carboxamide], the concentration for half-maximal inhibition (IC50) is more than 7.5 µM. As for `Cc1ncc(C(=O)NCCN2CC3CCC2CC3)cc1NC(=O)c1cnn2cc(-c3cnn(C)c3C)sc12` [Example 171, N-(5-((2-(2-azabicyclo[2.2.2]octan-2-yl)ethyl)carbamoyl)-2-methylpyridin-3-yl)-2-(1,5-dimethyl-1H-pyrazol-4-yl)pyrazolo[5,1-b]thiazole-7-carboxamide], the figure is more than 7.5 µM; as for `Cc1ncc(C(=O)NCCN2C3CCC2CC3)cc1NC(=O)c1cnn2cc(-c3cnn(C)c3C)sc12` [Example 172, N-(5-((2-(7-azabicyclo[2.2.1]heptan-7-yl)ethyl)carbamoyl)-2-methylpyridin-3-yl)-2-(1,5-dimethyl-1H-pyrazol-4-yl)pyrazolo[5,1-b]thiazole-7-carboxamide], more than 7.5 µM.

Molecule `Cc1ncc(C(=O)NCCN2CCCC2(C)C)cc1NC(=O)c1cnn2cc(-c3cnn(C)c3C)sc12` [Example 173, 2-(1,5-dimethyl-1H-pyrazol-4-yl)-N-(5-((2-(2,2-dimethylpyrrolidin-1-yl)ethyl)carbamoyl)-2-methylpyridin-3-yl)pyrazolo[5,1-b]thiazole-7-carboxamide] gave an IC50 of more than 7.5 µM.

For the molecule `Cc1ncc(C(=O)NCCN2CCCC2(C)C)cc1NC(=O)c1cnn2cc(-c3cn(C)nc3C)sc12` [Example 174, 2-(1,3-dimethyl-1H-pyrazol-4-yl)-N-(5-((2-(2,2-dimethylpyrrolidin-1-yl)ethyl)carbamoyl)-2-methylpyridin-3-yl)pyrazolo[5,1-b]thiazole-7-carboxamide], the IC50 was more than 7.5 µM.

As for `Cc1ncc(C(=O)NCCN2CCC23CCC3)cc1NC(=O)c1cnn2cc(-c3cn(C)nc3C)sc12` [Example 175, N-(5-((2-(1-azaspiro[3.3]heptan-1-yl)ethyl)carbamoyl)-2-methylpyridin-3-yl)-2-(1,3-dimethyl-1H-pyrazol-4-yl)pyrazolo[5,1-b]thiazole-7-carboxamide], the IC50 is more than 7.5 µM. To `Cc1ncc(C(=O)NCCN2CCCC23COC3)cc1NC(=O)c1cnn2cc(-c3cn(C)nc3C)sc12` [Example 176, N-(5-((2-(2-oxa-5-azaspiro[3.4]octan-5-yl)ethyl)carbamoyl)-2-methylpyridin-3-yl)-2-(1,3-dimethyl-1H-pyrazol-4-yl)pyrazolo[5,1-b]thiazole-7-carboxamide] belongs more than 7.5 µM. To `Cc1ncc(C(=O)NCCN2CCC3(CC3)C2)cc1NC(=O)c1cnn2cc(-c3cn(C)nc3C)sc12` [Example 177, N-(5-((2-(5-azaspiro[2.4]heptan-5-yl)ethyl)carbamoyl)-2-methylpyridin-3-yl)-2-(1,3-dimethyl-1H-pyrazol-4-yl)pyrazolo[5,1-b]thiazole-7-carboxamide] belongs more than 7.5 µM; to `Cc1ncc(C(=O)NCCN2CC3CCC2CC3)cc1NC(=O)c1cnn2cc(-c3cn(C)nc3C)sc12` [Example 178, N-(5-((2-(2-azabicyclo[2.2.2]octan-2-yl)ethyl)carbamoyl)-2-methylpyridin-3-yl)-2-(1,3-dimethyl-1H-pyrazol-4-yl)pyrazolo[5,1-b]thiazole-7-carboxamide], more than 7.5 µM; to `Cc1ncc(C(=O)NCCN2CCCC23COC3)cc1NC(=O)c1cnn2cc(-c3c(C)nn(C)c3C)sc12` [Example 179, N-(5-((2-(2-oxa-5-azaspiro[3.4]octan-5-yl)ethyl)carbamoyl)-2-methylpyridin-3-yl)-2-(1,3,5-trimethyl-1H-pyrazol-4-yl)pyrazolo[5,1-b]thiazole-7-carboxamide], more than 7.5 µM.
